# Measurements from patent US8895571B2, “Isoindolinone and pyrrolopyridinone derivatives as Akt inhibitors” (Incyte Corporation, priority 2011, dated 2014).
# Legend:
# [1] = target: T1, Full length Akt1 (Homo sapiens, UniProt P31749); experiment: In vitro Akt kinase enzymatic assay (HTRF), Akt1; assay type: biochemical; details: 0.4 nM Akt1, substrate solution with 5 mM ATP, 25° C. 1 hr
# T1 construct: Full length Akt1 (cat #P2999); purchased PerkinElmer P2999
# In short: (§1)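 Full-length enzyme (0.4 nM Akt1 or 0.6 nM Akt2/Akt3 in the enzyme solution) was combined with a substrate solution of 0.1 μM ULight-Crosstide plus 5 mM ATP in pH 7.8 HEPES/MgCl2/DTT/Tween20 buffer and reacted 1 hr at 25° C. The EDTA stop contained Eu anti-phospho-Crosstide; IC50 was fitted from 11-point HTRF inhibition curves.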
# [2] = target: T2, Full length Akt2 (Homo sapiens, UniProt P31751); experiment: In vitro Akt kinase enzymatic assay (HTRF), Akt2; assay type: biochemical; details: 0.6 nM Akt2, substrate solution with 5 mM ATP, 25° C. 1 hr
# T2 construct: Full length Akt1 (cat #P2999), Akt2 (cat #PV3184); purchased PerkinElmer PV3184
# T2 sequence (P31751 whole entry): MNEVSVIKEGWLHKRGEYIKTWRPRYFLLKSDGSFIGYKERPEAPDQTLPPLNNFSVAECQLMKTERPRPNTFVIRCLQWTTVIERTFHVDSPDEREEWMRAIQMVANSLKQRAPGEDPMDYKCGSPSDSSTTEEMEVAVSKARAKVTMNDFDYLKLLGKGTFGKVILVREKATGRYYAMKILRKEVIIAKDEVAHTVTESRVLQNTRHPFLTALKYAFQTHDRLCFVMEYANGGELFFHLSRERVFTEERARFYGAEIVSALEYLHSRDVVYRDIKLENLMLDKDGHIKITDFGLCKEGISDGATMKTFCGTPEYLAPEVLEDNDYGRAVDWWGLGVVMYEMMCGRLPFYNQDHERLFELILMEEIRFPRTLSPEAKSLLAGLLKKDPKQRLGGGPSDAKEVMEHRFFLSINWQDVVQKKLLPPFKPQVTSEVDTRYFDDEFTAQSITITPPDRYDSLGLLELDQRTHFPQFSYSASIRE
# In short: as §1
# [3] = target: T3, Full length Akt3 (Homo sapiens, UniProt Q9Y243); experiment: In vitro Akt kinase enzymatic assay (HTRF), Akt3; assay type: biochemical; details: 0.6 nM Akt3, substrate solution with 5 mM ATP, 25° C. 1 hr
# T3 construct: Full length Akt1 (cat #P2999), Akt2 (cat #PV3184), Akt3 (cat #PV3185); purchased PerkinElmer PV3185
# T3 sequence (Q9Y243 whole entry): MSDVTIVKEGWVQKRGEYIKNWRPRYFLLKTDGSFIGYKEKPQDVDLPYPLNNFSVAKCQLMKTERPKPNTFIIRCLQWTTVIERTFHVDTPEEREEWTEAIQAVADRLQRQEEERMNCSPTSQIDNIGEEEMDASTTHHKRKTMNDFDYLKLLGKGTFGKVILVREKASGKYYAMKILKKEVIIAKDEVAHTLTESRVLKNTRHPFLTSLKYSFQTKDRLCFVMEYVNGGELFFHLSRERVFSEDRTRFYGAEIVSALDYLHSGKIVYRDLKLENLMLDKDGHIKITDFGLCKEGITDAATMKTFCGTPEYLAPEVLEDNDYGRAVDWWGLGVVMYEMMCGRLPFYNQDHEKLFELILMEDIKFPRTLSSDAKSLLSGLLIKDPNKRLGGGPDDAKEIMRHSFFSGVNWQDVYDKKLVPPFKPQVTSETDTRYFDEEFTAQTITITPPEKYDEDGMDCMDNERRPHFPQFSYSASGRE
# In short: as §1
# [4] = target: T4, Full length PKA (Homo sapiens, UniProt P17612); experiment: PKA in vitro enzymatic assay (HTRF); assay type: biochemical; details: 0.035 nM enzyme solution, substrate solution with 5 mM ATP, 25° C. 1 hr
# T4 construct: Full length PKA (cat #P2912); purchased Invitrogen P2912
# In short: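 IC50 came from curve fitting of percent inhibition across an 11-point, 3-fold compound series, with HTRF read after EDTA quench and Tb-labelled p-S133 antibody detection. Enzyme (0.035 nM solution) and substrate (0.1 μM fluorescein-CREBtide solution containing 5 mM ATP) reacted for 1 h at 25°C. The buffer was HEPES 50 mM pH 7.8 with 10 mM MgCl2, 5 mM DTT and 0.005% Tween20.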
# [5] = tested on: LNCaP cells (human prostate tumor cell line); experiment: Akt LNCaP proliferation assay (MTS); assay type: cell-based; details: 48 hours
# Method: LNCaP cells (human prostate tumor cell line) were plated in 96 well plates (COSTAR, Corning, N.Y.) in 50 μL at 10,000 cells/well in RPMI (Media Tech, Manassas, Va.), 2% fetal bovine serum (Hyclone/Thermo, Logan, Utah) and incubated overnight at 37° C., 5% CO2. […] of compound solution were added at final concentrations of 1000 nM to 0.5 nM in 3 fold dilutions for IC50 determination and plates further incubated for 48 hours. 100 μL of Cell Titer 96® Aqueous reagent, from an MTS colorimetric method for determining the number of viable cells in proliferation (Cell titer 96, Promega, Madison, Wis.) was added for 2 hours at 37° C., 5% CO2. Each plate was mixed well and read on a SpectroMax M5 automated plate reader (Molecular Devices, Sunnyvale Calif.). The ability of the compound to inhibit proliferation was reported as the inhibitor concentration required for 50% inhibition (IC50 values) of total cell proliferation. See Table 8 for data related to compounds of the examples.
# [6] = 2% fetal bovine serum, class symbols
# [7] = given as a bound, final concentrations 1000 nM to 0.5 nM
# T1 sequence (P31749 whole entry): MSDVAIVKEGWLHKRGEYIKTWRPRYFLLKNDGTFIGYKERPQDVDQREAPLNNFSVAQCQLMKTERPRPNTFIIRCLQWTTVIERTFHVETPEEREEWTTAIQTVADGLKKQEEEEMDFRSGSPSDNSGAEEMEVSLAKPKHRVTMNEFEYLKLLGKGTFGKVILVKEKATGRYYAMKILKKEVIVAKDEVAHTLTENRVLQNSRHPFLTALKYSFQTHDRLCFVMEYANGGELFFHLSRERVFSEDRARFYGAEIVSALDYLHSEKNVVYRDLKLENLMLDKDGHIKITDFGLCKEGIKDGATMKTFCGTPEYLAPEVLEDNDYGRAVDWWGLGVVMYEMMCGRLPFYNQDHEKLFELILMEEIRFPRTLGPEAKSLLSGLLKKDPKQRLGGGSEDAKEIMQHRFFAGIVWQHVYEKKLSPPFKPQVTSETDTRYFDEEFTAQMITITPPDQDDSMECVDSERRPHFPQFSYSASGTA
SMILES,IC50 [1] [nM],IC50 [2] [nM],IC50 [3] [nM],IC50 [4] [nM],"IC50 [5, 6] [nM]","IC50 [5, 7] [nM]"
"Cn1ncc(Cl)c1-c1cc2c(cn1)C(=O)N([C@H](CN)Cc1cccc(F)c1)C2 [Example 92, 2-[(1S)-2-amino-1-(3-fluorobenzyl)ethyl]-6-(4-chloro-1-methyl-1H-pyrazol-5-yl)-1,2-dihydro-3H-pyrrolo[3,4-c]pyridin-3-one]",< 500,< 500,< 500,500 to 5000,< 500,
"C#Cc1cccc(C[C@@H](CN)N2Cc3cc(-c4c(Cl)cnn4C)ccc3C2=O)c1 [Example 89, 2-[(1S)-2-amino-1-(3-ethynylbenzyl)ethyl]-5-(4-chloro-1-methyl-1H-pyrazol-5-yl)isoindolin-1-one]",< 500,< 500,< 500,500 to 5000,< 500,
"CCn1nccc1-c1ccc2c(c1)CN([C@H](CN)Cc1cc(F)cc(F)c1)C2=O [Example 128, 2-[(1S)-2-amino-1-(3,5-difluorobenzyl)ethyl]-5-(1-ethyl-1H-pyrazol-5-yl)isoindolin-1-one]",< 500,< 500,< 500,> 5000,< 500,
"Cn1ncc(COC2CCC2)c1-c1cc2c(cn1)C(=O)N([C@H](CN)Cc1cccc(F)c1)C2 [Example 97, 2-[(1S)-2-amino-1-(3-fluorobenzyl)ethyl]-6-[4-(cyclobutoxymethyl)-1-methyl-1H-pyrazol-5-yl]-1,2-dihydro-3H-pyrrolo[3,4-c]pyridin-3-one]",< 500,< 500,< 500,> 5000,< 500,
"Cn1nccc1-c1ccc2c(c1)CN([C@@H](CN)c1ccccc1)C2=O [Example 116, 2-[(1R)-2-amino-1-phenylethyl]-5-(1-methyl-1H-pyrazol-5-yl)isoindolin-1-one]",< 500,< 500,500 to 5000,500 to 5000,< 500,
"Cn1ncc(Cl)c1-c1ccc2c(c1)CN([C@H](CN)Cc1ccccc1)C2=O [Example 56, 2-[(1S)-2-amino-1-benzyl-ethyl]-5-(4-chloro-1-methyl-1H-pyrazol-5-yl)isoindolin-1-one]",< 500,< 500,< 500,500 to 5000,< 500,
"Cn1ncc(Cl)c1-c1ccc2c(c1)CN([C@H](CN)Cc1cccs1)C2=O [Example 67, 2-[(1S)-2-amino-1-(2-thienylmethyl)ethyl]-5-(4-chloro-1-methyl-1H-pyrazol-5-yl)isoindolin-1-one]",< 500,< 500,< 500,500 to 5000,< 500,
"CC(C)OCc1cnn(C)c1-c1ccc2c(c1)CN([C@H](CN)Cc1ccccc1)C2=O [Example 58, 2-[(1S)-2-amino-1-benzyl-ethyl]-5-[4-(2-propoxymethyl)-1-methyl-1H-pyrazol-5-yl]isoindolin-1-one]",< 500,< 500,< 500,> 5000,< 500,
"Cc1cnn(C)c1-c1ccc2c(c1)CN([C@H](CN)Cc1cccc(F)c1)C2=O [Example 3, 2-[(1S)-2-amino-1-(3-fluorobenzyl)ethyl]-5-(4-methyl-1-methyl-1H-pyrazol-5-yl)isoindolin-1-one]",< 500,< 500,< 500,500 to 5000,< 500,
"Cn1nccc1-c1ccc2c(c1)CN([C@H](CN)Cc1cccc(-c3cccnc3)c1)C2=O [Example 86, 2-[(1S)-2-amino-1-(3-pyridin-3-ylbenzyl)ethyl]-5-(1-methyl-1H-pyrazol-5-yl)isoindolin-1-one]",500 to 5000,> 5000,> 5000,> 5000,,> 1000
"COCc1cnn(C)c1-c1ccc2c(c1)CN([C@H](CN)Cc1cccc(F)c1)C2=O [Example 4, 2-[(1S)-2-amino-1-(3-fluorobenzyl)ethyl]-5-(4-methoxymethyl-1-methyl-1H-pyrazol-5-yl)isoindolin-1-one]",< 500,< 500,< 500,> 5000,< 500,
"Cn1ncc(Br)c1-c1ccc2c(c1)CN([C@H](CN)Cc1ccccc1)C2=O [Example 57, 2-[(1S)-2-amino-1-benzyl-ethyl]-5-(4-bromo-1-methyl-1H-pyrazol-5-yl)isoindolin-1-one]",< 500,< 500,< 500,> 5000,< 500,
"CCCOCc1cnn(C)c1-c1cc2c(cn1)C(=O)N([C@H](CN)Cc1cc(F)cc(F)c1)C2 [Example 107, 2-[(1S)-2-amino-1-(3,5-difluoro-benzyl)ethyl]-6-[4-(1-propoxy-methyl)-1-methyl-1H-pyrazol-5-yl]-1,2-dihydro-3H-pyrrolo[3,4-c]pyridin-3-one]",< 500,< 500,< 500,> 5000,< 500,
"Cn1ncc(F)c1-c1ccc2c(c1)CN([C@H](CN)Cc1cccc(F)c1)C2=O [Example 11, 2-[(1S)-2-amino-1-(3-fluorobenzyl)ethyl]-5-(4-fluoro-1-methyl-1H-pyrazol-5-yl)isoindolin-1-one]",< 500,< 500,< 500,500 to 5000,< 500,
"Cn1nccc1-c1ccc2c(c1)CN([C@H](CN)Cc1cccc(-c3ccncc3)c1)C2=O [Example 85, 2-[(1S)-2-amino-1-(3-pyridin-4-ylbenzyl)ethyl]-5-(1-methyl-1H-pyrazol-5-yl)isoindolin-1-one]",> 5000,> 5000,> 5000,> 5000,,> 1000
"Cn1ncc(Br)c1-c1ccc2c(c1)CN([C@H](CN)Cc1cccc(F)c1)C2=O [Example 12, 2-[(1S)-2-amino-1-(3-fluorobenzyl)ethyl]-5-(4-bromo-1-methyl-1H-pyrazol-5-yl)isoindolin-1-one]",< 500,< 500,< 500,500 to 5000,< 500,
"Cn1ncc(Cl)c1-c1ccc2c(c1)CN([C@H](CN)Cc1ccccn1)C2=O [Example 66, 2-[(1S)-2-amino-1-(pyridin-2-ylmethyl)ethyl]-5-(4-chloro-1-methyl-1H-pyrazol-5-yl)isoindolin-1-one]",< 500,< 500,< 500,500 to 5000,< 500,
"Cn1ncc(COC2CCC2)c1-c1ccc2c(c1)CN([C@H](CN)Cc1cc(F)cc(F)c1)C2=O [Example 47, 2-[(1S)-2-amino-1-(3,5-difluorobenzyl)ethyl]-5-[4-(cyclobutoxymethyl)-1-methyl-1H-pyrazol-5-yl]isoindolin-1-one]",< 500,< 500,< 500,500 to 5000,< 500,
"COCc1cnn(C)c1-c1ccc2c(c1)CN([C@H](CN)CC1CCCCC1)C2=O [Example 133, 2-[(1S)-2-amino-1-(cyclohexylmethyl)ethyl]-5-[4-(methoxymethyl)-1-methyl-1H-pyrazol-5-yl]isoindolin-1-one]",< 500,500 to 5000,500 to 5000,> 5000,500 to 5000,
